Series [1] addresses T1, Octopamine receptor (Periplaneta americana) (UniProt Q7YWB7).
T1 sequence (whole entry): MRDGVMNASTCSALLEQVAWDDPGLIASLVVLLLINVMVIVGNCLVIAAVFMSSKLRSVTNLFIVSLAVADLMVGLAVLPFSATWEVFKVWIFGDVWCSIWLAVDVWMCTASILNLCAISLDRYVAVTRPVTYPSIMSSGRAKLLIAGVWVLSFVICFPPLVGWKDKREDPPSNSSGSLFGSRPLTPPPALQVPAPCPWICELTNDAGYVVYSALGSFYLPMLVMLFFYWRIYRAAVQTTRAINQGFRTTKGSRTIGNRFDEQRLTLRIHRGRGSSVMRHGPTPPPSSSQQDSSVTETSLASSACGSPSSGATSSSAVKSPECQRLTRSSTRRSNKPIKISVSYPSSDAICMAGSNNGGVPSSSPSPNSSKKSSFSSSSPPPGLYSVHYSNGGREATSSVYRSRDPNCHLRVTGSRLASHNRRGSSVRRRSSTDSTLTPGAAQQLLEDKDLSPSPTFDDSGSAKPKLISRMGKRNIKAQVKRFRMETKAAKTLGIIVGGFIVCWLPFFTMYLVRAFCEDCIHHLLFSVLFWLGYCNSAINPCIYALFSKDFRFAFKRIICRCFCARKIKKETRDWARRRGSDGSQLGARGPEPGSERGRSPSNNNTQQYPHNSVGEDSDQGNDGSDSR
The series can be described thus: Agonist activity at Periplaneta americana (American cockroach) thoracic nerve cord octopaminergic receptor assessed as induction of adenylate cyclase-mediated cAMP production per mg protein at 100 uM by radioimmunoassay relative to octopamine. Background: Changes in cAMP serve as a functional read-out for many G protein-coupled receptors.

The target in series [2] is T1, Octopamine receptor (Periplaneta americana). The experiment in a line: Agonist activity at Periplaneta americana (American cockroach) thoracic nerve cord octopaminergic receptor assessed as induction of adenylate cyclase-mediated cAMP production per mg protein at 100 uM by radioimmunoassay.
For series [3] the target is unchanged. The series can be described thus: Agonist activity at Periplaneta americana (American cockroach) thoracic nerve cord octopaminergic receptor assessed as induction of adenylate cyclase-mediated cAMP production per mg protein by radioimmunoassay.
The target is the same in series [4]. The experiment in a line: Agonist activity at Periplaneta americana (American cockroach) thoracic nerve cord octopaminergic receptor assessed as induction of adenylate cyclase-mediated cAMP production per mg protein at 10 uM by radioimmunoassay relative to octopamine.
Series [5] shares this target. The experiment in a line: Agonist activity at Periplaneta americana (American cockroach) thoracic nerve cord octopaminergic receptor assessed as induction of adenylate cyclase-mediated cAMP production per mg protein at 10 uM by radioimmunoassay.
Substrate in series [6]: CCc1cccc(CC)c1/N=C1/NCCO1
The series can be described thus: (§1) Agonist activity at Periplaneta americana (American cockroach) thoracic nerve cord octopaminergic receptor assessed as induction of adenylate cyclase-mediated cAMP production per mg protein by radioimmunoassay relative to octopamine.

Substrate in series [7]: Clc1ccc(CNC2=NCCO2)cc1Cl
The series is described as §1.

Substrate in series [8]: Clc1ccc(CNC2=NCCS2)cc1Cl
The description is as §1.

Take `Clc1cc(Br)ccc1/N=C1/NCCO1`: the max activation in series [1] was -8.4%. Also, the Activity in series [2] is 66.4 pmol/min.
As to `FC(F)(F)c1ccccc1CNC1=NCCO1`, in series [1], the max activation is 5.1%. For the same molecule, in series [2], the Activity turned out to be 137 pmol/min.
Taken in the same sequence, the figures for `Clc1cccc(/N=C2/NCCO2)c1Cl` were 2% and 121 pmol/min.
Regarding `Clc1ccc(CNC2=NCCO2)cc1Cl`, in series [3], the Ka worked out at 2.3 µM. In series [1], the max activation came to 13.5%. Moreover, the Activity in series [2] amounted to 180 pmol/min.
For the molecule `Clc1ccc(CNC2=NCCO2)c(Cl)c1`, in series [1], the max activation is 11.8%. For the same molecule, the Activity in series [2] is 172 pmol/min.
On to `COc1cccc(CNC2=NCCO2)c1`, for which the max activation in series [1] was -3.6%. Further, the Activity in series [2] turned out to be 91.5 pmol/min.
The matching figures for `Cc1cccc(CNC2=NCCO2)c1`: 9.2% and 158 pmol/min.
With `Fc1ccc(CNC2=NCCO2)cc1`, in series [1], the max activation came to 11.2%. In addition, the Activity in series [2] came out at 168 pmol/min.
Taken in the same sequence, the figures for `COc1ccccc1CNC1=NCCO1` were 6.9% and 146 pmol/min.
In the case of `FC(F)(F)c1ccc(CNC2=NCCO2)cc1`, in series [1], the max activation worked out at 7%. In addition, the Activity in series [2] is 147 pmol/min.
For `COc1ccc(CNC2=NCCO2)c(OC)c1`, the max activation in series [1] was determined as 9.8%. For the same molecule, the Activity in series [2] worked out at 161 pmol/min.
Take `Fc1ccccc1CNC1=NCCO1`: the max activation in series [1] amounted to 14.2%. In addition, the Activity in series [2] stood at 184 pmol/min.
In the case of `NCC(O)c1ccc(O)cc1` (stereo not given), the Ka in series [3] was 7.6 µM. Further, the Activity in series [2] is 630 pmol/min.
On to `CCc1ccc(/N=C2/NCCO2)cc1`, for which the Ka in series [3] came to 36 µM. Besides, the max activation in series [1] is 11.5%. Further, the Activity in series [2] came out at 170 pmol/min.
As for `Clc1ccc(CNC2=NCCS2)cc1Cl`, the Ka in series [3] was 0.4 µM.
Turning to `Clc1cccc(CNC2=NCCO2)c1`, the Activity in series [4] worked out at 27.2%; in series [5] it was 252 pmol/min. Also, the Ka in series [3] turned out to be 0.16 µM.
As for `CCc1ccccc1/N=C1/NCCO1`, in series [1], the max activation is -5%. For the same molecule, the Activity in series [2] turned out to be 84.1 pmol/min.
`Brc1ccccc1CNC1=NCCO1`: in series [1], the max activation stood at 10.4%. Also, in series [2], the Activity was found to be 164 pmol/min.
With `COc1cc(/N=C2/NCCO2)cc(OC)c1OC`, in series [1], the max activation is -9.4%. In addition, in series [2], the Activity came to 61.2 pmol/min.
With `Fc1ccc(F)c(/N=C2/NCCO2)c1`, in series [1], the max activation is -7.7%. In addition, in series [2], the Activity amounted to 70.3 pmol/min.
The matching figures for `Clc1ccc(CNC2=NCCO2)cc1`: 31.7% and 275 pmol/min.
Take `FC(F)(F)c1ccc(C(F)(F)F)c(/N=C2/NCCO2)c1`: the max activation in series [1] was -4.2%. Further, the Activity in series [2] turned out to be 88.3 pmol/min.
Turning to `CCc1cccc(CC)c1NC1=NCCN1`, in series [3], the Ka is 0.44 µM.
Take `Fc1cc(F)c(/N=C2/NCCO2)c(F)c1`: in series [1], the max activation was determined as 2.5%. Also, the Activity in series [2] was 123 pmol/min.
Consider `FC(F)(F)c1ccc(/N=C2/NCCO2)cc1`, for which the max activation in series [1] is 6.6%. In series [2], the Activity stood at 145 pmol/min.
As to `Cc1cc(Br)ccc1/N=C1/NCCO1`, in series [3], the Ka was found to be 0.19 µM. In series [1], the max activation was 19.9%. Also, in series [2], the Activity was 214 pmol/min.
In the case of `Clc1ccccc1CNC1=NCCO1`, the max activation in series [1] was found to be 17.4%. For the same molecule, in series [2], the Activity was 200 pmol/min.
Taken in the same sequence, the figures for `Fc1cccc(F)c1/N=C1/NCCO1` were -0.3% and 109 pmol/min.
As to `Clc1ccc(/N=C2/NCCO2)c(Cl)c1Cl`, the max activation in series [1] was 15.1%. Also, the Activity in series [2] came to 189 pmol/min.
The matching figures for `COc1cccc(CNC2=NCCO2)c1OC`: 8.9% and 157 pmol/min.
As for `Cc1ccc(CNC2=NCCO2)cc1`, the max activation in series [1] worked out at 35.2%. Also, in series [2], the Activity is 293 pmol/min.
With `CCc1cccc(CC)c1/N=C1/NCCO1`, the Ka in series [3] is 0.44 µM. The max activation in series [1] was 49%. The Activity in series [2] was found to be 365 pmol/min.
As for `FC(F)(F)c1cccc(CNC2=NCCO2)c1`, in series [1], the max activation stood at 17.2%. Moreover, in series [2], the Activity was determined as 200 pmol/min.
Regarding `Clc1cccc(/N=C2/NCCO2)c1`, the max activation in series [1] came out at 0.2%. Also, the Activity in series [2] was 111 pmol/min.
Consider `O=[N+]([O-])c1cccc(CNC2=NCCO2)c1`, for which the max activation in series [1] was determined as 18.4%. Besides, in series [2], the Activity was 206 pmol/min.
As for `COc1ccc(CNC2=NCCO2)cc1`, the max activation in series [1] was 17%. For the same molecule, the Activity in series [2] was 199 pmol/min.
As for `Cc1cc(Cl)ccc1/N=C1/NCCO1`, the Ka in series [3] was found to be 0.18 µM. Besides, the max activation in series [1] worked out at 17.9%. Besides, the Activity in series [2] was found to be 204 pmol/min.
Turning to `Brc1cc(Br)c(/N=C2/NCCO2)c(Br)c1`, the max activation in series [1] is -4.4%. The Activity in series [2] came to 87.4 pmol/min.
The matching figures for `Fc1ccc(F)c(CNC2=NCCO2)c1`: 19.3% and 211 pmol/min.

B1: Octopamine receptor (Periplaneta americana), Q7YWB7 (protein)
chain: T1 sequence (whole entry)
On to B1, for which the results for the Vmax in series [6], in series [7] and in series [8] were 58%, 29% and 53%, respectively.

(Values after ChEMBL document CHEMBL3046675, “Synthesis and Octopaminergic-Agonist Activity of 2-(Arylimino)oxazolidines and 2-(Substituted Benzylamino)-2-oxazolines” (J Pestic Sci, 1996).)
